Measurements: patent US12599136B2, “Substituted isophthalic acid diamides and their use as herbicides” (Bayer Aktiengesellschaft, priority 2020, dated 2026)

How the values were obtained:
Format in all cases: in vivo
Abutilon theophrasti [1] = experiment: Pre-emergence herbicidal action against ABUTH; details: visual score after 3 weeks vs untreated controls
Summary of the method: (§1)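 Seeds sown in sandy loam, soil-covered; compound sprayed on soil surface pre-emergence. Application: WP/EC, 600–800 l/ha, 0.2% wetting agent. Readout: visual % damage at 3 weeks.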

Alopecurus myosuroides [2] = experiment: Pre-emergence herbicidal action against ALOMY; details: 320 g/ha; visual score after 3 weeks vs untreated controls
Summary of the method: as §1

Amaranthus retroflexus [3] = experiment: Pre-emergence herbicidal action against AMARE; details: visual score after 3 weeks vs untreated controls
Summary of the method: as §1

Avena fatua [4] = experiment: Pre-emergence herbicidal action against AVEFA; details: 320 g/ha; visual score after 3 weeks vs untreated controls
Summary of the method: as §1

Cyperus esculentus = experiment: Pre-emergence herbicidal action against CYPES; details: visual score after 3 weeks vs untreated controls
From the text: (§2) Seeds of monocotyledonous and dicotyledonous weed plants and crop plants are laid out in sandy loam soil in wood-fiber pots and covered with soil. The compounds of the invention, formulated in the form of wettable powders (WP) or as emulsion concentrates (EC), are then applied to the surface of the covering soil in the form of an aqueous suspension or emulsion at a water application rate equivalent to 600 to 800 l/ha, with addition of 0.2% wetting agent. After the treatment, the pots are placed in a greenhouse and kept under good growth conditions for the trial plants. The damage to the test plants is scored visually after a test period of 3 weeks by comparison with untreated controls (herbicidal activity in percent (%): 100% activity=the plants have died, 0% activity=like control plants). […] The tables below illustrate, in an illustrative manner, the post-emergence herbicidal action of the compounds of the invention, the herbicidal activity being stated in percent.

Echinochloa crus-galli [5] = experiment: Pre-emergence herbicidal action against ECHCG; details: visual score after 3 weeks vs untreated controls
Summary of the method: as §1

Matricaria inodora [6] = experiment: Pre-emergence herbicidal action against MATIN; details: visual score after 3 weeks vs untreated controls
Summary of the method: as §1

Pharbitis purpurea [7] = experiment: Pre-emergence herbicidal action against PHBPU; details: 320 g/ha; visual score after 3 weeks vs untreated controls
From the text: as §2

Lolium rigidum = experiment: Pre-emergence herbicidal action against LOLRI; details: 320 g/ha
Summary of the method: as §1

Setaria viridis [8] = experiment: Pre-emergence herbicidal action against SETVI
Summary of the method: as §1

Stellaria media [9] = experiment: Pre-emergence herbicidal action against STEME
From the text: as §2

Veronica persica [10] = experiment: Pre-emergence herbicidal action against VERPE; details: 320 g/ha
Summary of the method: as §1

Viola tricolor [11] = experiment: Pre-emergence herbicidal action against VIOTR
Summary of the method: as §1

Abutilon theophrasti [12] = experiment: Post-emergence herbicidal action against ABUTH
Summary of the method: (§3)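 Sandy loam, greenhouse; treatment 2–3 weeks after sowing, one-leaf stage. Aqueous suspension or emulsion from WP/EC sprayed on foliage (600–800 l/ha, 0.2% wetting agent). Readout: visual % action, ~3 weeks.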

Alopecurus myosuroides [13] = experiment: Post-emergence herbicidal action against ALOMY; details: 80 g/ha
Summary of the method: as §3

Amaranthus retroflexus [14] = experiment: Post-emergence herbicidal action against AMARE; details: visual assessment about 3 weeks after treatment
Summary of the method: as §3

Avena fatua [15] = experiment: Post-emergence herbicidal action against AVEFA; details: visual assessment about 3 weeks after treatment
Summary of the method: as §3

Echinochloa crus-galli [16] = experiment: Post-emergence herbicidal action against ECHCG; details: visual assessment about 3 weeks after treatment
Summary of the method: as §3

Matricaria inodora [17] = experiment: Post-emergence herbicidal action against MATIN; details: visual assessment about 3 weeks after treatment
Summary of the method: as §3

Pharbitis purpurea [18] = experiment: Post-emergence herbicidal action against PHBPU; details: visual assessment about 3 weeks after treatment
Summary of the method: as §3

Setaria viridis [19] = experiment: Post-emergence herbicidal action against SETVI; details: visual assessment about 3 weeks after treatment
Summary of the method: as §3

Stellaria media [20] = experiment: Post-emergence herbicidal action against STEME; details: visual assessment about 3 weeks after treatment
Experimental: Seeds of monocotyledonous and dicotyledonous weed and crop plants are laid out in sandy loam soil in wood-fiber pots, covered with soil and cultivated in a greenhouse under good growth conditions. 2 to 3 weeks after sowing, the test plants are treated at the one-leaf stage. The compounds of the invention, formulated in the form of wettable powders (WP) or as emulsion concentrates (EC), are then sprayed onto the green parts of the plants in the form of an aqueous suspension or emulsion at a water application rate equivalent to 600 to 800 l/ha, with addition of 0.2% wetting agent. After the test plants have been left to stand in the greenhouse under optimal growth conditions for about 3 weeks, the action of the preparations is assessed visually in comparison to untreated controls (herbicidal action in percent (%): 100% activity=the plants have died, 0% activity=like control plants). […] The tables below illustrate, in an illustrative manner, the post-emergence herbicidal action of the compounds of the invention, the herbicidal activity being stated in percent.

Veronica persica [21] = experiment: Post-emergence herbicidal action against VERPE; details: 80 g/ha, visual assessment about 3 weeks after treatment
Summary of the method: as §3

Viola tricolor [22] = experiment: Post-emergence herbicidal action against VIOTR
Summary of the method: as §3

Polygonum convolvulus = experiment: Pre-emergence herbicidal action against POLCO; details: 320 g/ha
Summary of the method: as §1

[23] = Dosage column 320 g/ha (heading prints 3200 g/ha)

SMILES: CCCn1nnnc1NC(=O)c1ccc(C(F)(F)F)c(C(=O)N(C)CC2CC2)c1Cl [Example 3-126]
- Pre-emergence action against ABUTH (Abutilon theophrasti [1]; 20 g/ha): 100%
- Pre-emergence action against ABUTH (Abutilon theophrasti [1]; 80 g/ha): 100%
- Pre-emergence action against ABUTH (Abutilon theophrasti [1]; [23]): 100%
- Pre-emergence action against ALOMY (Alopecurus myosuroides [2]): 90%
- Pre-emergence action against AMARE (Amaranthus retroflexus [3]; 20 g/ha): 90%
- Pre-emergence action against AMARE (Amaranthus retroflexus [3]; 80 g/ha): 100%
- Pre-emergence action against AMARE (Amaranthus retroflexus [3]; 320 g/ha): 100%
- Pre-emergence action against AVEFA (Avena fatua [4]): 100%
- Pre-emergence action against CYPES (Cyperus esculentus; 80 g/ha): 100%
- Pre-emergence action against CYPES (Cyperus esculentus; 320 g/ha): 100%
- Pre-emergence action against ECHCG (Echinochloa crus-galli [5]; 320 g/ha): 80%
- Pre-emergence action against MATIN (Matricaria inodora [6]; 80 g/ha): 90%
- Pre-emergence action against MATIN (Matricaria inodora [6]; 320 g/ha): 100%
- Pre-emergence action against PHBPU (Pharbitis purpurea [7]): 80%
- Pre-emergence action against LOLRI (Lolium rigidum): 80%
- Pre-emergence action against SETVI (Setaria viridis [8]; 80 g/ha): 80%
- Pre-emergence action against SETVI (Setaria viridis [8]; 320 g/ha): 100%
- Pre-emergence action against STEME (Stellaria media [9]; 20 g/ha): 80%
- Pre-emergence action against STEME (Stellaria media [9]; 80 g/ha): 80%
- Pre-emergence action against STEME (Stellaria media [9]; 320 g/ha): 100%
- Pre-emergence action against VERPE (Veronica persica [10]): 90%
- Pre-emergence action against VIOTR (Viola tricolor [11]; 80 g/ha): 90%
- Pre-emergence action against VIOTR (Viola tricolor [11]; 320 g/ha): 100%
- Post-emergence action against ABUTH (Abutilon theophrasti [12]; 5 g/ha): 100%
- Post-emergence action against ABUTH (Abutilon theophrasti [12]; 20 g/ha): 100%
- Post-emergence action against ABUTH (Abutilon theophrasti [12]; 80 g/ha): 100%
- Post-emergence action against ALOMY (Alopecurus myosuroides [13]): 80%
- Post-emergence action against AMARE in % (Amaranthus retroflexus [14]; 5 g/ha): 100%
- Post-emergence action against AMARE in % (Amaranthus retroflexus [14]; 20 g/ha): 100%
- Post-emergence action against AMARE in % (Amaranthus retroflexus [14]; 80 g/ha): 100%
- Post-emergence action against AVEFA in % (Avena fatua [15]; 20 g/ha): 90%
- Post-emergence action against AVEFA in % (Avena fatua [15]; 80 g/ha): 100%
- Post-emergence action against ECHCG in % (Echinochloa crus-galli [16]; 5 g/ha): 90%
- Post-emergence action against ECHCG in % (Echinochloa crus-galli [16]; 20 g/ha): 100%
- Post-emergence action against ECHCG in % (Echinochloa crus-galli [16]; 80 g/ha): 100%
- Post-emergence action against MATIN in % (Matricaria inodora [17]; 5 g/ha): 80%
- Post-emergence action against MATIN in % (Matricaria inodora [17]; 20 g/ha): 90%
- Post-emergence action against MATIN in % (Matricaria inodora [17]; 80 g/ha): 100%
- Post-emergence action against PHBPU in % (Pharbitis purpurea [18]; 20 g/ha): 90%
- Post-emergence action against PHBPU in % (Pharbitis purpurea [18]; 80 g/ha): 100%
- Post-emergence action against SETVI in % (Setaria viridis [19]; 20 g/ha): 80%
- Post-emergence action against SETVI in % (Setaria viridis [19]; 80 g/ha): 100%
- Post-emergence action against STEME in % (Stellaria media [20]; 5 g/ha): 100%
- Post-emergence action against STEME in % (Stellaria media [20]; 20 g/ha): 100%
- Post-emergence action against STEME in % (Stellaria media [20]; 80 g/ha): 100%
- Post-emergence action against VERPE in % (Veronica persica [21]): 90%
- Post-emergence action against VIOTR in % (Viola tricolor [22]; 5 g/ha): 80%
- Post-emergence action against VIOTR in % (Viola tricolor [22]; 20 g/ha): 90%
- Post-emergence action against VIOTR in % (Viola tricolor [22]; 80 g/ha): 100%

SMILES: CCCn1nnnc1NC(=O)c1ccc(C(F)(F)F)c(C(=O)n2cccn2)c1Cl [Example 3-153]
- Pre-emergence action against ABUTH (Abutilon theophrasti [1]; 20 g/ha): 100%
- Pre-emergence action against ABUTH (Abutilon theophrasti [1]; 80 g/ha): 100%
- Pre-emergence action against ABUTH (Abutilon theophrasti [1]; [23]): 100%
- Pre-emergence action against AMARE (Amaranthus retroflexus [3]; 20 g/ha): 100%
- Pre-emergence action against AMARE (Amaranthus retroflexus [3]; 80 g/ha): 100%
- Pre-emergence action against AMARE (Amaranthus retroflexus [3]; 320 g/ha): 100%
- Pre-emergence action against AVEFA (Avena fatua [4]): 90%
- Pre-emergence action against CYPES (Cyperus esculentus; 80 g/ha): 80%
- Pre-emergence action against CYPES (Cyperus esculentus; 320 g/ha): 80%
- Pre-emergence action against ECHCG (Echinochloa crus-galli [5]; 80 g/ha): 90%
- Pre-emergence action against ECHCG (Echinochloa crus-galli [5]; 320 g/ha): 100%
- Pre-emergence action against MATIN (Matricaria inodora [6]; 20 g/ha): 80%
- Pre-emergence action against MATIN (Matricaria inodora [6]; 80 g/ha): 100%
- Pre-emergence action against MATIN (Matricaria inodora [6]; 320 g/ha): 100%
- Pre-emergence action against PHBPU (Pharbitis purpurea [7]): 100%
- Pre-emergence action against POLCO (Polygonum convolvulus): 90%
- Pre-emergence action against SETVI (Setaria viridis [8]; 20 g/ha): 90%
- Pre-emergence action against SETVI (Setaria viridis [8]; 80 g/ha): 100%
- Pre-emergence action against SETVI (Setaria viridis [8]; 320 g/ha): 100%
- Pre-emergence action against STEME (Stellaria media [9]; 20 g/ha): 90%
- Pre-emergence action against STEME (Stellaria media [9]; 80 g/ha): 100%
- Pre-emergence action against STEME (Stellaria media [9]; 320 g/ha): 100%
- Pre-emergence action against VERPE (Veronica persica [10]): 90%
- Pre-emergence action against VIOTR (Viola tricolor [11]; 20 g/ha): 90%
- Pre-emergence action against VIOTR (Viola tricolor [11]; 80 g/ha): 100%
- Pre-emergence action against VIOTR (Viola tricolor [11]; 320 g/ha): 100%
- Post-emergence action against ABUTH (Abutilon theophrasti [12]; 5 g/ha): 90%
- Post-emergence action against ABUTH (Abutilon theophrasti [12]; 20 g/ha): 90%
- Post-emergence action against ABUTH (Abutilon theophrasti [12]; 80 g/ha): 90%
- Post-emergence action against AMARE in % (Amaranthus retroflexus [14]; 5 g/ha): 90%
- Post-emergence action against AMARE in % (Amaranthus retroflexus [14]; 20 g/ha): 90%
- Post-emergence action against AMARE in % (Amaranthus retroflexus [14]; 80 g/ha): 100%
- Post-emergence action against AVEFA in % (Avena fatua [15]; 80 g/ha): 80%
- Post-emergence action against ECHCG in % (Echinochloa crus-galli [16]; 20 g/ha): 80%
- Post-emergence action against ECHCG in % (Echinochloa crus-galli [16]; 80 g/ha): 100%
- Post-emergence action against MATIN in % (Matricaria inodora [17]; 5 g/ha): 80%
- Post-emergence action against MATIN in % (Matricaria inodora [17]; 20 g/ha): 90%
- Post-emergence action against MATIN in % (Matricaria inodora [17]; 80 g/ha): 100%
- Post-emergence action against PHBPU in % (Pharbitis purpurea [18]; 5 g/ha): 80%
- Post-emergence action against PHBPU in % (Pharbitis purpurea [18]; 20 g/ha): 80%
- Post-emergence action against PHBPU in % (Pharbitis purpurea [18]; 80 g/ha): 90%
- Post-emergence action against STEME in % (Stellaria media [20]; 5 g/ha): 100%
- Post-emergence action against STEME in % (Stellaria media [20]; 20 g/ha): 100%
- Post-emergence action against STEME in % (Stellaria media [20]; 80 g/ha): 100%
- Post-emergence action against VIOTR in % (Viola tricolor [22]; 80 g/ha): 90%
